The results in this text go back to patent US12171756B2, “NLRP3 modulators” (Innate Tumor Immunity, Inc., priority 2017, dated 2024).

The subject of experiment [1] is IL-1β production in PMA-differentiated THP-1 cells. As to the kind of experiment: Measurement of IL-1β production in PMA-differentiated THP-1 cells (ELISA, 4 hours). It is filed as cell-based, human. To be noted: Homo sapiens, THP-1, human IL-1β production, assayed using one or more of the described procedures, read-out: NLRP3 hIL1B IC50. The method, boiled down: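 THP-1 cells differentiated with PMA (10 μg/ml, 24 h), replated at 1×10^6 cells/ml in RPMI with 2% FBS and exposed to compounds (e.g. 0.1–100 μM, 1% DMSO final) for 4 hours. IL-1β in cell-free supernatant quantified by ELISA against vehicle control.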
On the technique in general: In an ELISA, binding on a coated surface is turned into a signal by an enzyme label.

Another experiment deals with T1, human TLR7 (Homo sapiens, UniProt Q9NYK1).
T1 construct: host or cells: human HEK-Blue cells (HEK293-derived) co-expressing TLR7 and an NF-kB/AP1-inducible SEAP reporter
T1 sequence (Q9NYK1 27-1049): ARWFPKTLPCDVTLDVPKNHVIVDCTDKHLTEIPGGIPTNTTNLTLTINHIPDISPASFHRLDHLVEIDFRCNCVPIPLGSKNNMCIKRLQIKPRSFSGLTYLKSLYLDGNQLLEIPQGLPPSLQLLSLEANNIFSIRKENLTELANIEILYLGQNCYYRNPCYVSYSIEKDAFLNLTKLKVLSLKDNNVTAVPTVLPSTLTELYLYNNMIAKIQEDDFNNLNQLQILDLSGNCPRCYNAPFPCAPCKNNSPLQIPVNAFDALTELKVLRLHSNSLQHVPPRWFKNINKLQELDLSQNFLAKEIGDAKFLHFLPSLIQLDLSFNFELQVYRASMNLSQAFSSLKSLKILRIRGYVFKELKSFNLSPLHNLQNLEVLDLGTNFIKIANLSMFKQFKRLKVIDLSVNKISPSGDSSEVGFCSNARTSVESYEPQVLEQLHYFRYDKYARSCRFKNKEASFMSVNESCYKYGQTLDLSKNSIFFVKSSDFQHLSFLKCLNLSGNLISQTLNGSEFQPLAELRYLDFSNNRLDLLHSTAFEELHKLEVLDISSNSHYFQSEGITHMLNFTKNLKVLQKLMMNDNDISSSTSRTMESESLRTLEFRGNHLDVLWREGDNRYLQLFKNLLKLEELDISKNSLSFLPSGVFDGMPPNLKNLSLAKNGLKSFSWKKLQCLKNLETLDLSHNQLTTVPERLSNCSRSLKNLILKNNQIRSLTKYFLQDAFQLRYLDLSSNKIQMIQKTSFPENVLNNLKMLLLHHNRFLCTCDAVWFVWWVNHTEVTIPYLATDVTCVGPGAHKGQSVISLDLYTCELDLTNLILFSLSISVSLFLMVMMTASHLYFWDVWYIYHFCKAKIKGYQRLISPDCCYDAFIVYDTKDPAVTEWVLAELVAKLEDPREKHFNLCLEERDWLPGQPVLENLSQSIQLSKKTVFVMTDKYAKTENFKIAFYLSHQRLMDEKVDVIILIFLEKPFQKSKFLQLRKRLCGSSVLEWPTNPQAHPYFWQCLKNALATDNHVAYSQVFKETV
As to the kind of experiment: In vitro human TLR7 binding reporter assay (HEK-Blue, NF-kB/AP1-inducible SEAP). To be noted: HEK-Blue human TLR7 SEAP reporter cells; activity range classes; read-out: TLR7 Agonist EC50. It is filed as cell-based. The gist of the method:
(§1)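 HEK-Blue cells expressing human TLR7 or TLR8 with NF-kB/AP1-inducible SEAP reporter, plated 24 h, then compound-treated 18 h at 37° C, 5% CO2. EC50 normalized to 100% Ymax set by 50 μM reference standard.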
(In general: Reporter assays use an easily measured gene product as a stand-in for the process of interest.)

For the next experiment, the target named is T2, human TLR8 (Homo sapiens, UniProt Q9NR97).
T2 construct: host or cells: human HEK-Blue cells (HEK293-derived) co-expressing TLR8 and an NF-kB/AP1-inducible SEAP reporter
T2 sequence (Q9NR97 27-1041): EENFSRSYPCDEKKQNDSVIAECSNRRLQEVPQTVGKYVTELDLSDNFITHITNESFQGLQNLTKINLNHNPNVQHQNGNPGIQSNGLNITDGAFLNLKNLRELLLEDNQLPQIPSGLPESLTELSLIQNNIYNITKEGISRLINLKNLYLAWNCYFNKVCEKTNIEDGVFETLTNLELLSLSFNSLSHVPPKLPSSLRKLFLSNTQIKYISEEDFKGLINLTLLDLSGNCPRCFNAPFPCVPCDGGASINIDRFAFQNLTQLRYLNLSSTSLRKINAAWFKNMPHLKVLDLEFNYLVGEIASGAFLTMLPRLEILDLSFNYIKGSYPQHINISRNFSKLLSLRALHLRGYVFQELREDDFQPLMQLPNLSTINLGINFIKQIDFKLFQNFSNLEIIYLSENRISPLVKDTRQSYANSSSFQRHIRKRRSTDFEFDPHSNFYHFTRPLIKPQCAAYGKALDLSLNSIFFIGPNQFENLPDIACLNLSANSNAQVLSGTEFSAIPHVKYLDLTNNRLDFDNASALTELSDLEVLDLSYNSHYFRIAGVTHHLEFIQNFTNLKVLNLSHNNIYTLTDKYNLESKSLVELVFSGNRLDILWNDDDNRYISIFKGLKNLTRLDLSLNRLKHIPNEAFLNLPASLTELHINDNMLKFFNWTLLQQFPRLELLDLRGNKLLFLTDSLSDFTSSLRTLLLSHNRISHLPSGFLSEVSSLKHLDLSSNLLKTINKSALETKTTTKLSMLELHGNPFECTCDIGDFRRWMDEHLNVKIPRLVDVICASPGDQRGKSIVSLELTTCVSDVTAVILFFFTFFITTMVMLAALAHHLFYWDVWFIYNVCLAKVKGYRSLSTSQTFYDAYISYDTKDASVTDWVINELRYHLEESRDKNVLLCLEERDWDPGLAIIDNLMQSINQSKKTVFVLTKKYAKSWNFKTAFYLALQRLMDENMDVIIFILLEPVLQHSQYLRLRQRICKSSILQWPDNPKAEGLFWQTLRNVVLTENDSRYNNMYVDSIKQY
The experiment is described as follows: In vitro human TLR8 binding reporter assay (HEK-Blue, NF-kB/AP1-inducible SEAP). It is filed as cell-based. Conditions: HEK-Blue human TLR8 SEAP reporter cells; activity range classes; read-out: TLR8 Agonist EC50. The method, boiled down: as §1

As to `CN(C)c1cc(N)nc2cc(-c3ccn[nH]3)ccc12` [Compound 166], the IC50 in experiment [1] is 560 nM. In addition, the EC50 at human TLR7 and at human TLR8 was over 100 µM in each case.

For `Nc1cc(-n2ccnc2)c2ccc(-c3ccn[nH]3)cc2n1` [Compound 167, 4-(1H-imidazol-1-yl)-7-(1H-pyrazol-5-yl)quinolin-2-amine], the IC50 in experiment [1] turned out to be 8330 nM. In addition, the EC50 at human TLR7 and at human TLR8 was over 100 µM throughout.

As for `Nc1cc(NCCO)c2ccc(-c3cc[nH]n3)cc2n1` [Compound 169], in experiment [1], the IC50 was determined as 1370 nM. For the same compound, the EC50 on human TLR7 and at human TLR8 was over 100 µM each time.

With `CCN(CC)CCNc1cc(N)nc2cc(-c3ccn[nH]3)ccc12` [Compound 170], in experiment [1], the IC50 stood at 5820 nM. Besides, the concentration giving a half-maximal response (EC50) on human TLR7 and on human TLR8 was over 100 µM in each case.

As to `Nc1cc(OCCCCO)c2ccc(-c3ccn[nH]3)cc2n1` [Compound 172, 4-((2-amino-7-(1H-pyrazol-5-yl)quinolin-4-yl)oxy)butan-1-ol], the IC50 in experiment [1] was 410 nM. The EC50 at human TLR7 and at human TLR8 was over 100 µM each time.

Turning to `Nc1cc(NCCCO)c2ccc(-n3cccn3)cc2n1` [Compound 173, 3-((2-amino-7-(1H-pyrazol-1-yl)quinolin-4-yl)amino)propan-1-ol], the IC50 in experiment [1] turned out to be 280 nM. For the same compound, the EC50 at human TLR7 and at human TLR8 was over 100 µM throughout.

In the case of `CNC(=O)CCNc1cc(N)nc2cc(-n3cccn3)ccc12` [Compound 174], the IC50 in experiment [1] stood at 820 nM. Besides, the EC50 at human TLR7 and at human TLR8 was over 100 µM throughout.

On to `Nc1cc(NCc2cccnc2)c2ccc(-n3cccn3)cc2n1` [Compound 175], for which the IC50 in experiment [1] was 970 nM. The EC50 on human TLR7 and on human TLR8 was over 100 µM each time.

`CC(C)(O)CNc1cc(N)nc2cc(-n3cccn3)ccc12` [Compound 176]: the IC50 in experiment [1] is 700 nM. The 50% effective concentration (EC50) at human TLR7 and on human TLR8 was over 100 µM each time.

As for `CC(=O)NCCOc1cc(N)nc2cc(-n3cccn3)ccc12` [Compound 177, N-(2-((2-amino-7-(1H-pyrazol-1-yl)quinolin-4-yl)oxy)ethyl)acetamide], the IC50 in experiment [1] was found to be 3070 nM. Besides, the EC50 on human TLR7 and at human TLR8 was over 100 µM throughout.

Regarding `Nc1cc(OCCO)c2ccc(-c3ccn[nH]3)cc2n1` [Compound 178, 2-((2-amino-7-(1H-pyrazol-5-yl)quinolin-4-yl)oxy)ethan-1-ol], the IC50 in experiment [1] came to 700 nM. The EC50 on human TLR7 and at human TLR8 was over 100 µM throughout.

Turning to `Nc1cc(OCCCO)c2ccc(-c3ccn[nH]3)cc2n1` [Compound 179], the IC50 in experiment [1] amounted to 780 nM. Moreover, the EC50 on human TLR7 and at human TLR8 was over 100 µM each time.

As to `Nc1cc(OCCCCN2CCS(=O)(=O)CC2)c2ccc(-c3ccn[nH]3)cc2n1` [Compound 180], the IC50 in experiment [1] was determined as 9720 nM. Further, the EC50 at human TLR7 and at human TLR8 was over 100 µM throughout.

For `CCCOc1cc(N)nc2cc(-c3ccn[nH]3)ccc12` [Compound 182], in experiment [1], the IC50 came to 1140 nM. In addition, the EC50 on human TLR7 and at human TLR8 was over 100 µM in each case.

`Nc1cc(OCC(=O)N2CCCC2)c2ccc(-c3ccn[nH]3)cc2n1` [Compound 183]: the IC50 in experiment [1] was 8400 nM. The EC50 at human TLR7 and on human TLR8 was over 100 µM each time.

As to `CCOCCOc1cc(N)nc2cc(-c3ccn[nH]3)ccc12` [Compound 185], the IC50 in experiment [1] stood at 560 nM. For the same compound, the EC50 on human TLR7 and on human TLR8 was over 100 µM in each case.

In the case of `Nc1cc(OC2CCOCC2)c2ccc(-c3ccn[nH]3)cc2n1` [Compound 186], the IC50 in experiment [1] was 1080 nM. The EC50 on human TLR7 and on human TLR8 was over 100 µM throughout.

As for `Nc1cc(OCC2CCOCC2)c2ccc(-c3ccn[nH]3)cc2n1` [Compound 187], the IC50 in experiment [1] amounted to 850 nM. For the same compound, the EC50 at human TLR7 and on human TLR8 was over 100 µM each time.

With `CC(=O)NCCOc1cc(N)nc2cc(-c3ccn[nH]3)ccc12` [Compound 188], the IC50 in experiment [1] was 6310 nM. The EC50 at human TLR7 and at human TLR8 was over 100 µM throughout.

For the compound `Nc1cc(OCc2ccccn2)c2ccc(-c3ccn[nH]3)cc2n1` [Compound 189], the IC50 in experiment [1] was determined as 390 nM. In addition, the EC50 on human TLR7 and at human TLR8 was over 100 µM in each case.

Regarding `Nc1cc(OCc2cccnc2)c2ccc(-c3ccn[nH]3)cc2n1` [Compound 190], the IC50 in experiment [1] was determined as 660 nM. The EC50 at human TLR7 and at human TLR8 was over 100 µM throughout.

Turning to `Nc1cc(O[C@H]2CC[C@H](O)CC2)c2ccc(-c3ccn[nH]3)cc2n1` [Compound 191], in experiment [1], the IC50 stood at 630 nM. The EC50 on human TLR7 and on human TLR8 was over 100 µM each time.

Take `Nc1cc(OCC2(CO)CC2)c2ccc(-c3ccn[nH]3)cc2n1` [Compound 192]: the IC50 in experiment [1] stood at 630 nM. For the same compound, the EC50 at human TLR7 and at human TLR8 was over 100 µM throughout.

For the compound `COCCCOc1cc(N)nc2cc(-c3ccn[nH]3)ccc12` [Compound 193], the IC50 in experiment [1] is 1690 nM. In addition, the EC50 at human TLR7 and on human TLR8 was over 100 µM in each case.

On to `CC(CO)(CO)COc1cc(N)nc2cc(-c3ccn[nH]3)ccc12` [Compound 194], for which, in experiment [1], the IC50 worked out at 2230 nM. Moreover, the EC50 on human TLR7 and on human TLR8 was over 100 µM throughout.

As for `CC(C)(O)CCOc1cc(N)nc2cc(-c3ccn[nH]3)ccc12` [Compound 195], in experiment [1], the IC50 turned out to be 930 nM. For the same compound, the EC50 at human TLR7 and on human TLR8 was over 100 µM in each case.

Turning to `Nc1cc(OCCCn2cccn2)c2ccc(-c3ccn[nH]3)cc2n1` [Compound 196], the IC50 in experiment [1] was found to be 1110 nM. Further, the EC50 at human TLR7 and at human TLR8 was over 100 µM in each case.

As to `Nc1cc(OCCN2CCNC2=O)c2ccc(-c3ccn[nH]3)cc2n1` [Compound 198], in experiment [1], the IC50 is 11400 nM. In addition, the EC50 on human TLR7 and at human TLR8 was over 100 µM throughout.

On to `Nc1cc(O[C@H]2CCNC2=O)c2ccc(-c3ccn[nH]3)cc2n1` [Compound 199], for which, in experiment [1], the half-maximal inhibitory concentration (IC50) is 13300 nM. Moreover, the EC50 at human TLR7 and on human TLR8 was over 100 µM each time.

The IC50 is the midpoint of a concentration-inhibition curve. Broadly, the EC50 is the concentration giving half of the maximal effect.
